US20150328199A1, “METHODS AND COMPOSITIONS USING 4-AMINO-2-(2,6-DIOXO-PIPERIDINE-3-YL)-ISOINDOLINE-1,3-DIONE FOR TREATMENT OF CANCERS” (Celgene Corporation, priority 2014, published 2015)

Tests used:
[1] = Clinical pharmacokinetics of pomalidomide after single oral dose (non-compartmental analysis); assay type: in vivo, human
Experimental: Pomalidomide is absorbed with a maximum plasma concentration (Cmax) at a median time (tmax) between 2 hours and 3 hours after clinically relevant doses. Pomalidomide is >73% absorbed following administration of a single oral dose. […] Based on non-compartmental analysis, mean (percent coefficient of variation [%CV]) apparent volume of distribution (Vz/F) of pomalidomide after a single dose ranges from 74 L (20%) to 138 L (30%) across a dose range of 1 mg to 10 mg. Pomalidomide is extensively metabolized via multiple metabolic pathways and is eliminated in human via multiple pathways.

[2] = Comparative population pharmacokinetic analysis of pomalidomide with thalidomide and lenalidomide (two-compartment PPK model); assay type: in vivo, human; conditions: for drug exposure in central (plasma) compartment, patients versus healthy subjects: FIG. 7A, 8A; for drug exposure in peripheral compartment, patients versus healthy subjects: FIG. 7B, 8B; for relation of disease stage and peripheral compartment exposure in patients: FIG. 9
Text: Population pharmacokinetic analysis of pomalidomide was compared with that of 2-(2,6-dioxopiperidin-3-yl)-1H-isoindole-1,3(2H)-dione (“thalidomide”) and 3-(4-amino-1-oxo-1,3-dihydro-2H-isoindo1-2-yl)piperidine-2,6-dione (“lenalidomide” also known as “Revlimid”), on available data from healthy subjects and MM patients. The results of analyses are provided in Table 7 and FIGS. 3A to FIGS. 9. FIGS. 3A and 3B provide concentration vs. time profiles for thalidomide, lenalidomide and pomalidomide.
The data of thalidomide and revlimid are based on a population pharmacokinetic analysis performed on data from studies using a two-compartment PPK model.

| drug exposure in central (plasma) compartment, patients versus healthy subjects [2] | drug exposure in peripheral compartment, patients versus healthy subjects [2] | CL/F ([2]; HNV (healthy subjects)) | KA ([2]; HNV (healthy subjects)) | Q/CL ([2]; HNV (healthy subjects)) | Q/F ([2]; HNV (healthy subjects)) | Tlag ([2]; HNV (healthy subjects)) | CL/F ([2]; Patients (MM)) | Q/CL ([2]; Patients (MM)) | Q/F ([2]; Patients (MM)) | Tlag ([2]; Patients (MM)) | Relative Potential of Deep Penetration ([2]; HNV (healthy subjects)) | V2/F ([2]; HNV (healthy subjects)) | V3/F ([2]; HNV (healthy subjects)) | V3/V2 ([2]; HNV (healthy subjects)) | SMILES | further results |
| --- | --- | --- | --- | --- | --- | --- | --- | --- | --- | --- | --- | --- | --- | --- | --- | --- |
| comparable | higher drug exposure | 8.52 L/h | 1.25 h⁻¹ | 11.8% | 1.01 L/h | 0.385 h | 7.78 L/h | 48% | 3.75 L/h | 0.206 h |  |  |  |  | Nc1cccc2c1C(=O)N(C1CCC(=O)NC1=O)C2=O (stereo not drawn) [Pomalidomide, 4-amino-2-(2,6-dioxo-piperidine-3-yl)-isoindoline-1,3-dione] | Tmax ([1]; human, plasma, oral, after clinically relevant doses, read-out: median time (tmax) of maximum plasma concentration): 2 to 3 h; half-life ([1]; human, plasma, oral, read-out: geometric mean terminal half-life (t1/2) (converted)): ~7.5 h; Cmax versus dose ([1]; single dose): less than dose proportional; systemic exposure (AUC) versus dose ([1]; single dose): approximately dose-proportional; absorbed ([1]; single oral dose): > 73%; relation of disease stage and peripheral compartment exposure in patients [2]: higher disease stage were correlated with higher peripheral compartment pomalidomide exposure; relation of disease stage and peripheral compartment exposure in patients ([2]; listed as 4-amino-2-(2,6-dioxo-piperidine-3-yl)-isoindoline-1,3-dione): higher disease stage was correlated with higher peripheral compartment; KA ([2]; Patients (MM)): 1.25 h⁻¹ |
| comparable | comparable | 16.8 L/h | 5.41 h⁻¹ | 12.7% | 2.14 L/h | 0.25 h | 10.2 L/h | 11.1% | 1.13 L/h | 0.235 h | 2.1% | 56.5 L | 9.49 L | 16.8% | Nc1cccc2c1CN(C1CCC(=O)NC1=O)C2=O (stereo not drawn) [Revlimid, 3-(4-amino-1-oxo-1,3-dihydro-2H-isoindo1-2-yl)piperidine-2,6-dione] | Relative Potential of Deep Penetration ([2]; Patients (MM)): 1.9%; V2/F ([2]; Patients (MM)): 48.3 L; V3/F ([2]; Patients (MM)): 8.36 L; V3/V2 ([2]; Patients (MM)): 17.3% |
| comparable | comparable | 9.66 L/h | 0.536 h⁻¹ | 4% | 0.355 L/h |  |  |  |  |  | 0.6% | 83.3 L | 13.5 L | 16% | O=C1CCC(N2C(=O)c3ccccc3C2=O)C(=O)N1 (stereo not drawn) [Thalidomide, 2-(2,6-dioxopiperidin-3-yl)-1H-isoindole-1,3(2H)-dione] |  |
